The subject of experiment [1] is MTAP-null SW1573 cancer cell line. Put plainly: Combination viability assay (CellTiter-Glo, 7 days), SW1573 MTAP-deleted cells. Particulars: 7-day viability assay, combination partner: exemplar MTAPnull-selective PRMT5 inhibitor. Type of experiment: cell-based. On the procedure: A SW1573 MTAP-isogenic cell line pair was generated by either reconstituting MTAP gene expression, or by introducing an empty control vector, in the MTAP-deleted SW1573 parental cell line. The cell lines were maintained in DMEM+10% FBS in a humidified, 5% CO2 tissue culture incubator. All test compounds are maintained as 10 mM DMSO stocks.
On Day 0, MTAP-intact and MTAP-deleted cells are seeded in a 384-well plate, and incubated in a humidified, 5% CO2 tissue culture incubator for 16-24 hours. On Day 1, the test compounds are dispensed to wells at defined concentrations (n=2), and the volume of DMSO is normalized to highest class volume. The compound-treated plates are incubated for 7 days in a humidified, 5% CO2 tissue culture incubator.
On Day 7, the plates are removed from the tissue culture incubator and allowed to equilibrate to room temperature. Relative viability is assessed by addition of CellTiter-Glo reagent, and data are plotted as % of DMSO control for each compound in each cell line, with a 4-parameter fit non-linear regression model (GraphPad Prism). Synergy is determined according to the HSA model by the Combenefit software package (Version 2.021).
Background: Cellular ATP, detected with luciferase, serves as a proxy for viable cell number.

Experiment [2] shares this test system. Put plainly: 7-day viability assay, combination with an exemplar MTAP-null-selective PRMT5 inhibitor, SW1573. Format: cell-based. To be noted: in combination with an exemplar MTAP-null-selective PRMT5 inhibitor. From the text:
FIG. 3. Combination of AG-270, a MAT2A inhibitor effect is synergistic according to the HSA model, where the synergy score quantifies the excess of the highest single compound response

For experiment [3], the system named is HAP1 MTAP-deleted cell line. Put plainly: SDMA in-cell western assay, HAP1 MTAP-deleted. Type of experiment: cell-based. Particulars: for IC50: Homo sapiens, HAP1, SDMA in-cell western, HAP1 MTAP-deleted, read-out: HAP 1 MTAP deleted IC50; for MTAP intact/deleted ratio: IC50 ratio HAP1 MTAP-intact / HAP1 MTAP-deleted, SDMA in-cell western. The method, boiled down: (§1)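 Compounds were tested in HAP1 cells differing only in MTAP status (endogenous expression versus null). Cellular SDMA levels were then measured by in-cell western, giving an IC50 in each background.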

The subject of experiment [4] is HAP1 MTAP-intact cell line. Put plainly: SDMA in-cell western assay, HAP1 MTAP-intact. Type of experiment: cell-based. Particulars: Homo sapiens, HAP1, SDMA in-cell western, HAP1 MTAP-intact; read-out: MTAP HAP1 intact IC50. The method, boiled down: as §1
Experiment [5] has as its system HAP1 MTAP-deleted cell line. The experiment can be described thus: Viability assay, MTAP-deleted cell line. Type of experiment: cell-based. To be noted: Homo sapiens, HAP1, viability, HAP1 MTAP-deleted cell line; read-out: HAP1 MTAP deleted viability. The text has this: Table 1 additionally indicates IC50 values in a viability assay for the MTAP-deleted cell line (column 10), indicating the effect of treatment with compound on cell survival.

Experiment [6] concerns the target T1, PRMT5 (Homo sapiens, UniProt O14744).
T1 construct: purchased Viva (custom protein)
Put plainly: PRMT5 biochemical IC50 assay with no cofactor. Particulars: PRMT5, no cofactor; read-out: No Cofactor/ rel IC50. From the text:
Table 1 indicates IC50 values (μM) against PRMT5 for exemplary compounds in the presence of SAM as cofactor, with no cofactor, and with MTA as cofactor, respectively (columns 4-6). […] Ki values can be calculated from the IC50 values as described in the Examples section. As detailed in the Examples section, for the assay performed in the presence of SAM, IC50=Ki×1.5 (Ki=IC50/1.5).

Experiment [7] deals with T1, PRMT5. The experiment can be described thus: PRMT5 biochemical IC50 assay with SAM as cofactor. Particulars: PRMT5, SAM as cofactor; read-out: SAM IC50.
Experiment [8] deals with T1, PRMT5. The experiment can be described thus: PRMT5 biochemical IC50 assay with MTA as cofactor. Particulars: PRMT5, MTA as cofactor; read-out: MTA IC50.

T1 sequence (O14744 whole entry): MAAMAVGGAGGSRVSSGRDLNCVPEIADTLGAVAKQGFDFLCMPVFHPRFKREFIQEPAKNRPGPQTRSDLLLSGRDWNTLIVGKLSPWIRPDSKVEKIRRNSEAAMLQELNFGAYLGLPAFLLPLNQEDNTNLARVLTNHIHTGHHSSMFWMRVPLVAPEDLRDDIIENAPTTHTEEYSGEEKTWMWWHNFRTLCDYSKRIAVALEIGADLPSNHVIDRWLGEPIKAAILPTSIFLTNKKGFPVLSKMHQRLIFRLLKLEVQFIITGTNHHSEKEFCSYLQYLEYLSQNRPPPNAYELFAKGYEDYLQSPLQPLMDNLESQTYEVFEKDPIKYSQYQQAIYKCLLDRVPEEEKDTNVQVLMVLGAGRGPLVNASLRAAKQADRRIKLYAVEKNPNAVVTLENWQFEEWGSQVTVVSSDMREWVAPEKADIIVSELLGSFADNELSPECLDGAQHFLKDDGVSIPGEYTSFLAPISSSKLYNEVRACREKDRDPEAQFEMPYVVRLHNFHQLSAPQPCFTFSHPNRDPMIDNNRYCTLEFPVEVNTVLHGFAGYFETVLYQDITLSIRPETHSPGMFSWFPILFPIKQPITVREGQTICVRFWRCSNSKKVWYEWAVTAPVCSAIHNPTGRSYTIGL
T1 sequence (Q9BQA1 whole entry partner): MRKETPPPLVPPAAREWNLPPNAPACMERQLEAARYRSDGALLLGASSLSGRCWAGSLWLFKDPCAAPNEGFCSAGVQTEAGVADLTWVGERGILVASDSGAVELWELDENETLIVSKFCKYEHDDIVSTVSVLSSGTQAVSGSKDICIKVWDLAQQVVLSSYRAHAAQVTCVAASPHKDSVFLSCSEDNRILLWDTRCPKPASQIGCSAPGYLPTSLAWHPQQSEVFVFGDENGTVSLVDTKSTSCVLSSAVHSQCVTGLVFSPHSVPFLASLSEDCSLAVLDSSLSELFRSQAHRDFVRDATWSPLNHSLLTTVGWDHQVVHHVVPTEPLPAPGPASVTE

On to `C=CC(=O)N1CCN(c2nc(=O)n(-c3c(C)ccnc3C(C)C)c3nc(-c4c(O)cccc4F)c(F)cc23)[C@@H](C)C1` [AMG-510], for which the “cellular viability, combination with an exemplar MTAP-null-selective PRMT5 inhibitor” value in experiment [1] is “enhanced cellular viability defects”. Moreover, the “Effect of the combination on cellular viability” value (shortened to “Effect of the combination”) in experiment [2] is listed as “enhanced cellular viability defects”.

As for `CCc1cc(NC(=O)C(=O)N2C[C@@H](C)CC[C@@H]2c2cccc(OCCN3CCCC3)c2)cnc1N` [Compound 1391, N-(6-amino-5-ethylpyridin-3-yl)-2-((2R,5)-5-methyl-2-(3-(2-(pyrrolidin-1-yl)ethoxy)phenyl)piperidin-1-yl)-2-oxoacetamide], the IC50 is below 100 nM in experiment [3]; 100 to 1000 nM in experiment [4]; below 1000 nM in experiment [5]; below 50 nM in experiment [6]; below 50 nM in experiment [7]; below 50 nM in experiment [8]. Also, in experiment [3], the “MTAP intact/deleted ratio” value is given as “A (an IC50 ratio greater than or equal to 10 fold)”.

`CCc1cc(NC(=O)C(=O)N2[C@@H](c3ccc4sc(C5CCN(C)CC5)nc4c3)CCC[C@@H]2C)cnc1N` [Compound 1395]: the IC50 in experiment [3] was below 100 nM; in experiment [4], below 100 nM; in experiment [5], below 1000 nM; in experiment [6], below 50 nM; in experiment [7], 50 to 500 nM; in experiment [8], below 50 nM. For the same compound, the “MTAP intact/deleted ratio” value in experiment [3] is on record as “A (an IC50 ratio greater than or equal to 10 fold)”.

In the case of `CCc1cc(NC(=O)C(=O)N2C[C@@H](C)CC[C@@H]2c2ccc3sc(CC4(N(C)C)COC4)nc3c2)cnc1N` [Compound 1399, N-(6-amino-5-ethylpyridin-3-yl)-2-((2R,5S)-2-(2-((3-(dimethylamino)oxetan-3-yl)methyl)benzo[d]thiazol-5-yl)-5-methylpiperidin-1-yl)-2-oxoacetamide], the IC50 in experiment [3] was below 100 nM; in experiment [4] it was 100 to 1000 nM; in experiment [5], below 1000 nM; in experiment [6], below 50 nM; in experiment [7] it was 50 to 500 nM; in experiment [8] it was below 50 nM. For the same compound, the “MTAP intact/deleted ratio” value in experiment [3] was “A (an IC50 ratio greater than or equal to 10 fold)”.

Take `CCc1cc(NC(=O)C(=O)N2C[C@@H](C)CC[C@@H]2c2ccc(N3CCCC4(CCN(C)CC4)C3)cc2)cnc1N` [Compound 1401, N-(6-Amino-5-ethyl-3-pyridyl)-2-[(2R,5S)-5-methyl-2-[4-(9-methyl-2,9-diazaspiro[5.5]undecan-2-yl)phenyl]-1-piperidyl]-2-oxo-acetamide]: the IC50 was below 100 nM in experiment [3]; 100 to 1000 nM in experiment [4]; below 1000 nM in experiment [5]; below 50 nM in experiment [6]; 50 to 500 nM in experiment [7]; below 50 nM in experiment [8]. For the same compound, the “MTAP intact/deleted ratio” value in experiment [3] is reported as “A (an IC50 ratio greater than or equal to 10 fold)”.

On to `CCc1cc(NC(=O)C(=O)N2C[C@@H](C)CC[C@@H]2c2ccc(CCN(C)C)c(Cl)c2)cnc1N` [Compound 1402, N-(6-amino-5-ethylpyridin-3-yl)-2-((2R,5S)-2-(3-chloro-4-(2-(dimethylamino)ethyl)phenyl)-5-methylpiperidin-1-yl)-2-oxoacetamide], for which the IC50 is below 100 nM in experiment [3]; 100 to 1000 nM in experiment [4]; below 1000 nM in experiment [5]; below 50 nM in experiment [6]; 50 to 500 nM in experiment [7]; below 50 nM in experiment [8]. Moreover, the “MTAP intact/deleted ratio” value in experiment [3] is “A (an IC50 ratio greater than or equal to 10 fold)”.

As for `CCc1cc(NC(=O)C(=O)N2C[C@@H](C)CC[C@@H]2c2ccc3sc(C45CC(N(C)C)(C4)C5)nc3c2)cnc1N` [Compound 1404, N-(6-amino-5-ethylpyridin-3-yl)-2-((2R,5S)-2-(2-(3-(dimethylamino)bicyclo[1.1.1]pentan-1-yl)benzo[d]thiazol-5-yl)-5-methylpiperidin-1-yl)-2-oxoacetamide], the IC50 in experiment [3] is below 100 nM; in experiment [4], below 100 nM; in experiment [5] it was below 1000 nM; in experiment [6], below 50 nM; in experiment [7] it was below 50 nM; in experiment [8] it was below 50 nM. For the same compound, in experiment [3], the “MTAP intact/deleted ratio” value is recorded as “A (an IC50 ratio greater than or equal to 10 fold)”.

With `O=C(Nc1ccc2[nH]nc(-c3ccncc3)c2c1)[C@@H]1CCN(CC(=O)N2CCN(c3ccc(-c4ncccn4)cc3)CC2)C1` [SCH772984], the “cellular viability, combination with an exemplar MTAP-null-selective PRMT5 inhibitor” value in experiment [1] is “enhanced cellular viability defects”. Also, the “Effect of the combination” value in experiment [2] is recorded as “enhanced cellular viability defect”.

In the case of `CC(C)Nc1cc(-c2c[nH]c(C(=O)N[C@H](CO)c3cccc(Cl)c3)c2)c(Cl)cn1` [ulixertinib], in experiment [1], the “cellular viability, combination with an exemplar MTAP-null-selective PRMT5 inhibitor” value is reported as “enhanced cellular viability defects”. Further, the “Effect of the combination” value in experiment [2] is given as “enhanced cellular viability defect”.
